According to patent publication US20160095843A1, “PYRAZOLOPYRROLIDINE DERIVATIVES AND THEIR USE IN THE TREATMENT OF DISEASE” (NOVARTIS AG, priority 2013, published 2016):

Experiments:
[1] = test system: MV-4-11 cells; assay: Cell growth inhibition assay (CellTiter-Glo), MV-4-11; assay type: cell-based; conditions: Homo sapiens, MV4-11
Method: (§1) Cell Growth Inhibition Assay
(§2) The human leukemia cell lines MV-4-11, THP-1 and K-562 were employed to characterize the effect of BET inhibitors on cellular proliferation and viability. Cells were obtained from the American Type Culture Collection (ATCC) and cultured at 37° C. in a humidified 5% CO2 incubator in the following media: MV-4-11: DMEM high glucose (Animed #1-26F01-I), 10% FCS (Animed #2-01F26-I), 4 mM L-Glutamine (Animed #5-10K50), 1 mM Sodium Pyruvate (Animed # G03625P), 1× Penicillin-Streptomycin (Animed # F12478P); K-562: Iscove's MEM (Animed #1-28F16-I), 10% FCS (Animed #2-01F26-I), 4 mM L-Glutamine (Animed #5-10K50), 1× Penicillin-Streptomycin (Animed # F12478P); THP-1: RPMI-1640 (Animed #1-41F01-I), 10% FCS (Animed #2-01F26-I), 2 mM L-Glutamine (Animed #5-10K50), 10 mM HEPES (Animed #5-31F100), 1 mM Sodium Pyruvate (Animed # G03625P), 1× Penicillin-Streptomycin (Animed # F12478P). The AML lines MV-4-11 and THP-1 are very sensitive to BET inhibitors and show massive cell death upon BET inhibition (Zuber et al., Nature, 478 (2011), 524-8). Compound-mediated suppression of cell proliferation/viability was assessed by quantification of cellular ATP levels using the CellTiter-Glo (CTG) reagent (Promega). Briefly, cells were seeded in 20 μl fresh medium into 384-well plates, followed by addition of 5 μL medium containing compound dilutions at 5-fold their final intended concentration. Dose-response effects were assessed by 3-fold serial dilutions of the test compound, starting at 10 μM. Following incubation of the cells for 4 days at 37° C. and 5% CO2, the effect of inhibitors on cell viability was quantified following addition of 20 μl CTG and luminescence quantification (integration time: 100 ms) as per vendor manual, using a correspondingly equipped Tecan M200 multi-mode platereader (TECAN, Switzerland). For data analysis, the assay background value determined in wells containing medium, but no cells, was subtracted from all data points. To enable differentiation of cytotoxic from cytostatic compounds, the number of viable cells is assessed relative to that observed at the time of compound addition using a separate cell plate (day 0). The effect of a particular test compound concentration on cell proliferation/viability is expressed as percentage of the background- and day 0-corrected luminescence reading obtained for cells treated with vehicle only (DMSO, 0.1% final concentration), which is set as 100%, whereas that luminescence reading for wells containing medium is set as −100%. Compound concentrations leading to half-maximal (1050) and total growth inhibition (TGI) were determined using standard four parameter curve fitting.

[2] = test system: THP-1 cells; assay: Cell growth inhibition assay (CellTiter-Glo), THP-1; assay type: cell-based; conditions: Homo sapiens
Method: as §1, §2

[3] = test system: K-562 cells; assay: Cell growth inhibition assay (CellTiter-Glo), K-562; assay type: cell-based, human; conditions: for GI50: Homo sapiens, K562
Method: as §1, §2

For `Cc1nn(C(C)C)c2c1C(c1ccc(Cl)cc1)N(c1cc(C)c(=O)n(C)c1)C2=O` (centres unmarked) [Example 63, 4-(4-chlorophenyl)-5-(1,5-dimethyl-6-oxo-1,6-dihydropyridin-3-yl)-1-isopropyl-3-methyl-4,5-dihydropyrrolo[3,4-c]pyrazol-6(1H)-one], which GI50 [1] is on record?
Its GI50 is 25.8 nM.

What about the GI50 [2] of the same compound?
Its GI50 is 61.9 nM.

What about the IC (TGI) [3] of the same compound?
Its IC (TGI) is over 10000 nM.

What about the GI50 [3] of the same compound?
Its GI50 is 314 nM.

`Cc1cc(N2C(=O)c3nn(C(C)C)c(C)c3C2c2ccc(Cl)cc2)cn(C)c1=O` (centres unmarked) [Example 64, 4-(4-chlorophenyl)-5-(1,5-dimethyl-6-oxo-1,6-dihydropyridin-3-yl)-2-isopropyl-3-methyl-4,5-dihydropyrrolo-[3,4-c]pyrazol-6(2H)-one] was tested. Which GI50 [1] did it give?
Its GI50 is 27.6 nM.

What about the GI50 [2] of the same compound?
Its GI50 is 64.8 nM.

And the GI50 [3]?
The GI50 was 292 nM.

Which results are given for `Cc1c2c(nn1C(C)C)C(=O)N(c1cc(Cl)c(=O)n(C)c1)C2c1ccc(Cl)cc1` (centres unmarked) [Example 65, 5-(5-chloro-1-methyl-6-oxo-1,6-dihydropyridin-3-yl)-4-(4-chlorophenyl)-2-isopropyl-3-methyl-4,5-dihydropyrrolo-[3,4-c]pyrazol-6(2H)-one]?
GI50 [1]: 67.5 nM; GI50 [2]: 121 nM; GI50 [3]: 554 nM

For `Cc1nn(C(C)C)c2c1C(c1ccc(Cl)cc1)N(c1cc(Cl)c(=O)n(C)c1)C2=O` (centres unmarked) [Example 66, 5-(5-chloro-1-methyl-6-oxo-1,6-dihydropyridin-3-yl)-4-(4-chlorophenyl)-1-isopropyl-3-methyl-4,5-dihydropyrrolo-[3,4-c]pyrazol-6(1H)-one], which GI50 [1] is on record?
Its GI50 is 67.7 nM.

And the GI50 [2]?
The GI50 was 126 nM.

What about the GI50 [3] of the same compound?
The GI50 was 908 nM.

How did the GI50 [1] turn out when `COc1ncc(-n2nc3c(c2C(C)C)C(c2ccc(Cl)cc2)N(c2cc(C)c4nnc(C)n4c2)C3=O)c(OC)n1` (centres unmarked) [Example 67, 4-(4-chlorophenyl)-2-(2,4-dimethoxypyrimidin-5-yl)-5-(3,8-dimethyl-[1,2,4]triazolo-[4,3-a]pyridin-6-yl)-3-isopropyl-4,5-dihydropyrrolo-[3,4-c]pyrazol-6(2H)-one] was run?
The GI50 was 8.55 nM.

And the GI50 [2]?
The GI50 was 20.3 nM.

And the GI50 [3]?
The GI50 was 47.4 nM.

Which results are given for `CCc1c2c(nn1C1CC1)C(=O)N(c1cc(C)c(=O)n(C)c1)C2c1ccc(Cl)cc1` (centres unmarked) [Example 68, 4-(4-chlorophenyl)-2-cyclopropyl-5-(1,5-dimethyl-6-oxo-1,6-dihydropyridin-3-yl)-3-ethyl-4,5-dihydropyrrolo-[3,4-c]pyrazol-6(2H)-one]?
GI50 [1]: 30.1 nM; GI50 [2]: 47.7 nM; GI50 [3]: 157 nM

For `CCc1nn(C2CC2)c2c1C(c1ccc(Cl)cc1)N(c1cc(C)c(=O)n(C)c1)C2=O` (centres unmarked) [Example 69, 4-(4-chlorophenyl)-1-cyclopropyl-5-(1,5-dimethyl-6-oxo-1,6-dihydropyridin-3-yl)-3-ethyl-4,5-dihydropyrrolo-[3,4-c]pyrazol-6(1H)-one], which GI50 [1] is on record?
The GI50 was 27.4 nM.

And the GI50 [2]?
The GI50 was 44.2 nM.

And the GI50 [3]?
The GI50 was 135 nM.

For `CCc1nn(C2CC2)c2c1C(c1ccc(Cl)cc1)N(c1cc(C)c3nnc(C)n3c1)C2=O` (centres unmarked) [Example 70, 4-(4-chlorophenyl)-1-cyclopropyl-5-(3,8-dimethyl-[1,2,4]triazolo[4,3-a]pyridin-6-yl)-3-ethyl-4,5-dihydropyrrolo-[3,4-c]pyrazol-6(1H)-one], which GI50 [1] is on record?
The GI50 was 9.02 nM.

And the GI50 [2]?
The GI50 was 12.2 nM.

What about the GI50 [3] of the same compound?
The GI50 was 60.8 nM.

How did the GI50 [1] turn out when `COc1ncccc1-n1nc(C)c2c1C(=O)N(c1cc(C)c(=O)n(C)c1)C2c1ccc(Cl)cc1` (centres unmarked) [Example 71, 4-(4-chlorophenyl)-5-(1,5-dimethyl-6-oxo-1,6-dihydropyridin-3-yl)-1-(2-methoxypyridin-3-yl)-3-methyl-4,5-dihydropyrrolo-[3,4-c]pyrazol-6(1H)-one] was run?
Its GI50 is 66.6 nM.

And the GI50 [2]?
Its GI50 is 75.6 nM.

What about the IC (TGI) [3] of the same compound?
The IC (TGI) was over 10000 nM.

And the GI50 [3]?
Its GI50 is 345 nM.

Which results are given for `COc1ncccc1-n1nc(C)c2c1C(=O)N(c1cc(Cl)c(=O)n(C)c1)C2c1ccc(Cl)cc1` (centres unmarked) [Example 72, 5-(5-chloro-1-methyl-6-oxo-1,6-dihydropyridin-3-yl)-4-(4-chlorophenyl)-1-(2-methoxypyridin-3-yl)-3-methyl-4,5-dihydropyrrolo[3,4-c]pyrazol-6(1H)-one]?
GI50 [1]: 100 nM; GI50 [2]: 223 nM; GI50 [3]: 766 nM

What does the source list for `Cc1cc(N2C(=O)c3nn(C)c(O)c3C2c2ccc(Cl)cc2)cn(C)c1=O` (centres unmarked) [Example 73, 4-(4-chlorophenyl)-5-(1,5-dimethyl-6-oxo-1,6-dihydropyridin-3-yl)-3-hydroxy-2-methyl-4,5-dihydropyrrolo[3,4-c]pyrazol-6(2H)-one]?
GI50 [1]: 3020 nM; GI50 [2]: > 10000 nM; GI50 [3]: > 10000 nM

`CCOc1c2c(nn1C)C(=O)N(c1cc(C)c(=O)n(C)c1)C2c1ccc(Cl)cc1` (centres unmarked) [Example 76, 4-(4-chlorophenyl)-5-(1,5-dimethyl-6-oxo-1,6-dihydropyridin-3-yl)-3-ethoxy-2-methyl-4,5-dihydropyrrolo-[3,4-c]pyrazol-6(2H)-one] was tested. Which GI50 [1] did it give?
Its GI50 is 53.2 nM.

What about the GI50 [2] of the same compound?
The GI50 was 140 nM.

And the GI50 [3]?
The GI50 was 339 nM.

For `COc1c2c(nn1C)C(=O)N(c1cc(C)c(=O)n(C)c1)C2c1ccc(Cl)cc1` (centres unmarked) [Example 77, 4-(4-chlorophenyl)-5-(1,5-dimethyl-6-oxo-1,6-dihydropyridin-3-yl)-3-methoxy-2-methyl-4,5-dihydropyrrolo-[3,4-c]pyrazol-6(2H)-one], which GI50 [1] is on record?
Its GI50 is 88.8 nM.

And the GI50 [2]?
Its GI50 is 178 nM.

What about the GI50 [3] of the same compound?
The GI50 was 569 nM.

With `CCc1nn(CCO)c2c1C(c1ccc(Cl)cc1)N(c1cc(C)c(=O)n(C)c1)C2=O` (centres unmarked) [Example 78, 4-(4-chlorophenyl)-5-(1,5-dimethyl-6-oxo-1,6-dihydropyridin-3-yl)-3-ethyl-1-(2-hydroxyethyl)-4,5-dihydropyrrolo-[3,4-c]pyrazol-6(1H)-one] as the compound, how does the GI50 [1] read?
The GI50 was 52 nM.

What about the GI50 [2] of the same compound?
Its GI50 is 85.4 nM.

What about the GI50 [3] of the same compound?
The GI50 was 392 nM.

Which GI50 [1] does the source give for `CCc1nn(CCO)c2c1C(c1ccc(Cl)cc1)N(c1cc(C)c3onc(C)c3c1)C2=O` (centres unmarked) [Example 79, 4-(4-chlorophenyl)-5-(3,7-dimethylbenzo[d]isoxazol-5-yl)-3-ethyl-1-(2-hydroxyethyl)-4,5-dihydropyrrolo-[3,4-c]pyrazol-6(1H)-one] here?
Its GI50 is 348 nM.

And the GI50 [2]?
Its GI50 is 255 nM.

What about the GI50 [3] of the same compound?
Its GI50 is 920 nM.

What does the source list for `CCc1c2c(nn1CCO)C(=O)N(c1cc(C)c3onc(C)c3c1)C2c1ccc(Cl)cc1` (centres unmarked) [Example 80, 4-(4-chlorophenyl)-5-(3,7-dimethylbenzo[d]isoxazol-5-yl)-3-ethyl-2-(2-hydroxyethyl)-4,5-dihydropyrrolo[3,4-c]pyrazol-6(2H)-one]?
GI50 [1]: 356 nM; GI50 [2]: 354 nM; GI50 [3]: 868 nM

`Cc1ncccc1-n1nc2c(c1C)C(c1ccc(Cl)cc1)N(c1cc(C)c(=O)n(C)c1)C2=O` (centres unmarked) [Example 81, 4-(4-chlorophenyl)-5-(1,5-dimethyl-6-oxo-1,6-dihydropyridin-3-yl)-3-methyl-2-(2-methylpyridin-3-yl)-4,5-dihydropyrrolo-[3,4-c]pyrazol-6(2H)-one] was tested. Which GI50 [1] did it give?
Its GI50 is 95.6 nM.

And the GI50 [2]?
Its GI50 is 261 nM.

What about the GI50 [3] of the same compound?
The GI50 was 883 nM.

Which results are given for `Cc1ncccc1-n1nc(C)c2c1C(=O)N(c1cc(C)c(=O)n(C)c1)C2c1ccc(Cl)cc1` (centres unmarked) [Example 82, 4-(4-chlorophenyl)-5-(1,5-dimethyl-6-oxo-1,6-dihydropyridin-3-yl)-3-methyl-1-(2-methylpyridin-3-yl)-4,5-dihydropyrrolo[3,4-c]pyrazol-6(1H)-one]?
GI50 [1]: 94.8 nM; GI50 [2]: 222 nM; GI50 [3]: 920 nM

Which results are given for `Cc1nn(-c2cncn2C)c2c1C(c1ccc(Cl)cc1)N(c1cc(C)c(=O)n(C)c1)C2=O` (centres unmarked) [Example 83, 4-(4-chlorophenyl)-5-(1,5-dimethyl-6-oxo-1,6-dihydropyridin-3-yl)-3-methyl-1-(1-methyl-1H-imidazol-5-yl)-4,5-dihydropyrrolo[3,4-c]pyrazol-6(1H)-one]?
GI50 [1]: 100 nM; GI50 [2]: 164 nM; GI50 [3]: 719 nM
